Measured values from patent US6806293B1, “Use of pheromone compounds having MAP kinase modulating activity” (Darley Pharmaceuticals LTD, priority 2001, dated 2004).

Assays:
Assay type in all cases: cell-based, rat
[1] = test system: MAP kinase; assay: MAP kinase activation in Rat1 cells compared to EGF and TPA (Example 3, western blot, densitometry); details: 15 minutes; for Activity (% of EGF-activation), Conc. 1 / Activity (% of TPA-activation), Conc. 1: compound 1 × 10^-4 M; for Activity (% of EGF-activation), Conc. 1 / Activity (% of EGF-activation), Conc. 2: relative to EGF 50 ng/ml; for Activity (% of TPA-activation), Conc. 1 / Activity (% of TPA-activation), Conc. 2: relative to TPA 100 nM; for Activity (% of EGF-activation), Conc. 2 / Activity (% of TPA-activation), Conc. 2: compound 1 × 10^-5 M
Protocol: Rat1 cells were grown in 6 cm cell culture dishes in a tissue culture incubator at 37° C. in an atmosphere containing 5% carbon dioxide. The Rat1 cells were serum-starved for 16 hours. Three groups of the Rat1 cells were then treated for 15 minutes with either epidermal growth factor (EGF) (50 ng/ml), 12-O-tetradecanoylphorbol-13-acetate (TPA) (100nM), or with one of the pheromone compounds at one of two concentrations identified in Table 2 below. EGF and TPA are compounds which are known to activate MAP kinase and therefore serve as a basis of comparing the relative activity of the pheromone compounds. The cells were then washed with phosphate buffered saline (PBS) and lysed with radioimmunoprotein assay (RIPA) buffer. The proteins were then separated by sodium dodecyl sulfate-polyacrylamide gel electrophoresis (SDS-PAGE), transferred onto a nitrocellulose membrane and probed with anti-MAPK antibodies to produce a blot. The MAP kinase activity for the EGF-treated cells, the TPA-treated cells and the pheromone compound-treated cells, was analyzed and calculated using densitometric analysis. The results shown in Table 2 are presented as percent of EGF-stimulated active MAP kinase levels or TPA-stimulated active MAP kinase levels, respectively.

[2] = test system: MAP kinase; assay: Screening method for pheromone compounds having MAP kinase modulating activity in Rat1 cells (Example 1); details: observed on screening in accordance with the described methods
Protocol: In a preferred screening method, as set forth in Example 1 herein, pheromone compounds with MAP kinase modulating activity are identified using Rat1 cells grown in cell culture dishes. Samples of the pheromone compound are added to respective cell culture dishes containing the Rat1 cells and incubated. A control group is established by treating a separate group of cell culture dishes containing Rat1 cells with the same solutions absent the pheromone compound. After incubation, the Rat1 cells are stimulated with epidermal growth factor to stimulate MAP kinase activation in the Rat1 cells. Upon completion of the incubation period, the Rat1 cells in each of the culture dishes are separately processed to obtain the corresponding cell extract containing proteins indicative of active kinase. The proteins are then separated using known electrophoresis techniques and prepared as a blot for the detection and measurement of active MAP kinase. The resulting blot is analyzed using densitometric techniques to measure the corresponding activity of the tested pheromone compound.
Rat1 cells were grown in 6 cm cell culture dishes in a tissue culture incubator at 37° C. in an atmosphere containing 5% carbon dioxide. The cells were serum-starved for 16 hours. […] A control group was established by adding to the remaining cell culture dishes the same solution absent the pheromone compound. After the 15 minute period, the Rat1 cells were stimulated with epidermal growth factor (EGF) (50 ng/ml) for about 15 minutes for one group and 30 minutes for a second group.
The Rat1 cells were then treated to remove the corresponding incubation medium and then the cells were rinsed twice each with 5 ml of cold phosphate buffered saline (PBS) and once with 5 ml of cold homogenizing buffer (Buffer H) containing 50 mM of β-glycerophosphate, (pH 7.3), 1.5 mM of ethylenebis(oxyethylenenitrilo)tetraacetic acid (EGTA), 1 mM of ethylenediaminetetraacetic acid (EDTA), 1 mM of dithiothreitol (DTT), 0.1 mM sodium orthovanadate, 1 mM benzamidine, 10 μg/ml of aprotinin, 10 μg/ml of leupeptin, and 2 μg/ml of pepstatin (2 μg/ml)+1% Triton-X-100.
The cells were harvested and lysed with 350 μl of cold Buffer H. Alternatively, the cells may be harvested and lysed with radioimmunoprotein assay buffer (RIPA buffer). Each extract was then centrifuged at 15,000×g for 15 minutes at 4° C. The resulting supernatants contained the protein extracts to be examined and were transferred to fresh, pre-cooled test tubes and kept on ice.
The proteins were then separated by sodium dodecyl sulfate-polyacrylamide gel electrophoresis (SDS-PAGE) and transferred, by western blotting, onto a nitrocellulose membrane.
The blot produced above was blocked with 2% bovine serum albumin (BSA) in Tris-buffered saline/Tween-20 (TBST) for 1 hour. The blot was then incubated with a monoclonal anti-active MAP kinase antibody obtained from Sigma, and diluted according to the manufacturer recommendations. The blot was incubated overnight at 4° C. Alternatively, the blot may also be incubated for about 30 minutes at 37° C., or from one to two hours at room temperature.
The treated blot was placed in a flat container and washed at least 3 times for 15 minutes each with TBST buffer at room temperature. The blot was then incubated with alkaline phosphatase-conjugated goat anti-mouse IgG obtained from Jackson Laboratories, diluted according to the manufacturer recommendations in TBST buffer for 45 minutes at room temperature. The blot was then subjected to a second washing, repeated 3 times, for 10 minutes each with TBST. An alkaline phosphatase (AP) detection technique was utilized to detect and measure the presence of active MAP kinase. Enhanced MAP kinase activity as compared to control is evidence that the compound is a MAP kinase activator. Lowered MAP kinase activity as compared to control is evidence that the compound is a MAP kinase inhibitor. […]

[3] = test system: MAP kinase; assay: Inhibition of EGF-stimulated MAP kinase activity in Rat1 cells (Example 2, western blot with anti-active-MAPK antibodies, densitometry); details: compound 10^-4 M preincubated about 30 min; for Inhibition of MAP Kinase activity (% of Control), 15 minute activation by EGF: EGF 25 ng/ml for 15 minutes
Protocol: Rat1 cells grown in a series of cell culture dishes were prepared in the same manner described above in Example 1. The cells were serum-starved for 16 hours. Three groups of cell culture dishes containing Rat1 cells were each preincubated for about 30 minutes with solution containing the pheromone compound, trans-3, cis-7-tetradecadienyl-acetate at a concentration of 10^−4 M, with a solution containing the pheromone compound, trans-3, cis-8-tetradecadienyl-acetate at a concentration of 10^−4 M, or a control solution absent any pheromone compound. After preincubation, all of the Rat1 cells were stimulated with epidermal growth factor (EGF) (25 ng/ml) for about 15 minutes for one group and 30 minutes for a second group. The Rat1 cells were then washed with phosphate buffered saline (PBS) and lysed with RIPA buffer. The proteins were then separated by sodium dodecyl sulfate-polyacrylamide gel electrophoresis (SDS-PAGE) and probed with anti-active-MAPK antibodies. The inhibitory effect of the pheromone compound on MAPK activity was calculated as the percent EGF-induced activity as indicated by densitometry analysis as compared to the control receiving no pheromone compound.

CCCC/C=C\CCCCCCCCC/C=C/C=O [Trans-2,Cis-13-Octadecadienal]
Activity (% of EGF-activation), Conc. 1 [1]: 4%
Activity (% of TPA-activation), Conc. 1 [1]: 30%
Activity (% of EGF-activation), Conc. 2 [1]: 8%
Activity (% of TPA-activation), Conc. 2 [1]: 40%
mitogen-activating protein kinase modulation activity (activator or inhibitor) [2]: activators

CCCCCC/C=C\CC/C=C/CCOC(C)=O [Trans-3,Cis-7-Tetradecadienyl-acetate]
Inhibition of MAP Kinase activity (% of Control), 15 minute activation by EGF [3]: 75%
Inhibition of MAP Kinase activity (% of Control), 30 minute activation by EGF ([3]; EGF 25 ng/ml for 30 minutes): 85%
mitogen-activating protein kinase modulation activity (activator or inhibitor) [2]: inhibitors

CC/C=C\C/C=C\CCC/C=C/CCO [Trans-3,Cis-8,Cis-11-Tetradecatrienol]
Activity (% of EGF-activation), Conc. 1 [1]: 6%
Activity (% of TPA-activation), Conc. 1 [1]: 10%
Activity (% of EGF-activation), Conc. 2 [1]: 5%
Activity (% of TPA-activation), Conc. 2 [1]: 50%
mitogen-activating protein kinase modulation activity (activator or inhibitor) [2]: activators

CCCCC/C=C\CCC/C=C/CCOC(C)=O [Trans-3,Cis-8-Tetradecadienyl-acetate]
Inhibition of MAP Kinase activity (% of Control), 15 minute activation by EGF [3]: 50%
mitogen-activating protein kinase modulation activity (activator or inhibitor) [2]: inhibitors

CCCC/C=C/CCCCOC(C)=O [Trans-5-decenyl-acetate]
Activity (% of EGF-activation), Conc. 1 [1]: 1%
Activity (% of EGF-activation), Conc. 2 [1]: 4%
Activity (% of TPA-activation), Conc. 2 [1]: 18%
mitogen-activating protein kinase modulation activity (activator or inhibitor) [2]: activators

C/C=C/CCCCCCCCCO [Trans-10-Dodecenol]
Activity (% of EGF-activation), Conc. 1 [1]: 2%
Activity (% of TPA-activation), Conc. 1 [1]: 10%
Activity (% of EGF-activation), Conc. 2 [1]: 10%
Activity (% of TPA-activation), Conc. 2 [1]: 60%
mitogen-activating protein kinase modulation activity (activator or inhibitor) [2]: activators

Cis-9-Undecenyl-acetate
Activity (% of EGF-activation), Conc. 1 [1]: 18%
Activity (% of TPA-activation), Conc. 1 [1]: 115%
Activity (% of EGF-activation), Conc. 2 [1]: 3%
Activity (% of TPA-activation), Conc. 2 [1]: 10%
mitogen-activating protein kinase modulation activity (activator or inhibitor) [2]: activators

Heneicosene-11-one
Activity (% of EGF-activation), Conc. 1 [1]: 12%
Activity (% of TPA-activation), Conc. 1 [1]: 42%
Activity (% of EGF-activation), Conc. 2 [1]: 12%
Activity (% of TPA-activation), Conc. 2 [1]: 22%
mitogen-activating protein kinase modulation activity (activator or inhibitor) [2]: activators
